Data published in PMC7010297, “How the initiating ribosome copes with ppGpp to translate mRNAs” (PLoS Biology, 2020).
Values joined by “and” are separate entries in the source; they are usually repeats but may differ in a detail not shown here. Identical values can stand only once. Like-named read-outs stand apart in the source and are kept apart here.

Key:
[1] = target: T1, 30S-bound IF2 (30S IC) (Escherichia coli, UniProt P0A705); assay: ppGpp (or GDP) to GTP competitive assay for 30S IC formation by MST; format: binding
T1 construct: 6xHis (N); made in house
T1 sequence (P0A705 whole entry, looked up): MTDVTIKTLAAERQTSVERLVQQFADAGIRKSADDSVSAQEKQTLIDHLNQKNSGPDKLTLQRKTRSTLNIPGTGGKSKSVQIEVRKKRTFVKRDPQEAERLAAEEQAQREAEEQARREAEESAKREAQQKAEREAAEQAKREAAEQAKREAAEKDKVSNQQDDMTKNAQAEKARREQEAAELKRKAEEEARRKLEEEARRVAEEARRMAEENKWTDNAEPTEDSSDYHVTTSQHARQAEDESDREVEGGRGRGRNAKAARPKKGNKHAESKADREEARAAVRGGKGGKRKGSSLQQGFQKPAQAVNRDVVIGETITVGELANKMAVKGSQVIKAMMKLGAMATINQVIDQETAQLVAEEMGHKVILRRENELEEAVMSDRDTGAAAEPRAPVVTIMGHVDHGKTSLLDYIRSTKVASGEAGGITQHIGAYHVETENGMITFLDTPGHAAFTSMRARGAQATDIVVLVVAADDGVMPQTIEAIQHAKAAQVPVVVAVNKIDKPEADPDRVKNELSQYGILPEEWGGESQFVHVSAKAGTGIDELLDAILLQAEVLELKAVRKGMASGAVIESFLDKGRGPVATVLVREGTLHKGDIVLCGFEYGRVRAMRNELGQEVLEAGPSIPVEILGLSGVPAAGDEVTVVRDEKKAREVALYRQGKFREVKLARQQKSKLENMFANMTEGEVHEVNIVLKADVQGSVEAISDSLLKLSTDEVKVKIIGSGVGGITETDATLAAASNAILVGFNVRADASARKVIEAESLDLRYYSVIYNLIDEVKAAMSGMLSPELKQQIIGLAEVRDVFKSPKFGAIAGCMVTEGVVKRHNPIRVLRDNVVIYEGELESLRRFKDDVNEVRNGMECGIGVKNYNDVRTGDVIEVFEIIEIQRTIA
Protocol: MST was calculated from the respective fluorescence time dependencies (S3 Fig). […] Symbols as in (B). […] Continuous lines indicate nonlinear regression fittings with quadratic (B and E) or same-site competition (G) functions. Three measurements were performed; mean and standard deviations are plotted (S1 Data).
[…] Symbols are as indicated, 3 measurements were performed, and mean and standard deviation are plotted (S1 Data). Continuous lines show nonlinear regression fittings with a same-site inhibition model. […] (PDF) Click here for additional data file.

[2] = target: T2, 70S pre-IC (50S joining to 30S IC) (Escherichia coli, UniProt P0A705); assay: 70S pre-IC formation by light scattering, stopped-flow; format: biochemical; set-up: K1, best-fit value / k2, best-fit value: unit not given here; conditions: for A0, best-fit value / K1, best-fit value / k2, best-fit value: fit Y=A0+A1*exp(-K1*x)+k2*x; for kfast (s-1) Avg: light scattering
T2 construct: 6xHis (N); made in house
T2 sequence (P0A705 whole entry, looked up): as above
Protocol: (§1) Continuous lines indicate nonlinear regression fittings with a quadratic equation. Three measurements were performed; mean and standard deviation are plotted (S1 Data). (B) as (A) to measure the concentration dependence for each tested guanosine nucleotide at constant IF2 (1 μM). […] Continuous lines show best fits using exponential functions. (D) Formation of 70S IC as measured by Bpy-tRNAi accommodation in the P site of the ribosome; 0.1 μM 30S ICs were formed with Bpy-tRNAi and rapidly mixed with 0.3 μM 50S subunits on a stopped-flow apparatus as described in [14]. Colors are as in (C). Continuous lines show best fits using an exponential function for a single reaction step. Each stopped-flow trace results from the mean of 5 to 7 replicates.
(A) Scheme of 70S IC formation. […] Time traces were analyzed by nonlinear regression with exponential terms. […] Formation of 70S IC, as measured by Bpy-tRNAi accommodation in the absence (F) or presence of 200 μM ppGpp (G). Time traces were analyzed by nonlinear regression with one exponential term. […] Continuous lines show best fits using an exponential function for a single reaction step. All time traces are mean values of 5 to 10 replicates. Bar graphs show mean and standard errors (error bars) derived from the nonlinear regression fitting (D,E,H,I) (S1 Data).
To measure 70S pre-IC formation, a SX-20 stopped-flow instrument (Applied Photophysics, Leatherhead, UK) was set up for LS recording with an excitation wavelength of 430 nm. Scattered light was measured at an angle of 90° without a filter. Pseudo first-order conditions were approximated by using ≥3-fold excess of 50S subunits over 30S ICs; 0.2 μM 30S ICs were rapidly mixed in the instrument with 0.6 μM 50S at 25 °C. Bpy-tRNAi accommodation was measured essentially as described elsewhere. Briefly, 0.2 μM 30S ICs were formed using Bpy-tRNAi and rapidly mixed with 0.6 μM 50S at 25 °C. Fluorescence was excited at 470 nm and measured after a 495-nm longpass filter. Individual traces (6–11 traces) were averaged, and the resulting kinetic curve was approximated by single (F = A0 + A1*exp (-kapp1*t)) or double (F = A0 + A1*exp (-kapp1*t) + A2*exp (-kapp2*t)) exponential fit using Graphpad Prism 6.0 software (GraphPad, San Diego, California).

[3] = target: T3, 30S IC (30S-bound IF2, Bpy-tRNAi) (Escherichia coli, UniProt P0A705); assay: 30S IC formation measured by MST at increasing concentrations of IF2 with guanosine nucleotides; format: binding; conditions: Fig 2A
T3 construct: 6xHis (N); made in house
T3 sequence (P0A705 whole entry, looked up): as above
Source text: To monitor the interaction of initiator tRNA and 30S ribosomal subunits, we used Microscale Thermophoresis (MST) with a fluorescently labelled initiator tRNA (Bpy-tRNAi) (Fig 1B). MST allows to measure fluorescence in a constrained space. Changes on the readout derive from molecular drifts resulting from small thermal equilibrium perturbations. Upon equilibrium perturbations, the patterns of Bpy-tRNAi migration away from the observation space are related to bound and unbound states (Fig 1B). […] On the contrary, a decrease in thermophoresis indicated the dissociation of Bpy-tRNAi. The relation between fluorescence measured at both equilibriums (Ff to Fi, after and prior to the perturbation, respectively) as a function of ligand concentration allowed to determine dissociation constants of the interaction (Fig 1C).
as §1

Nc1nc2c(ncn2[C@@H]2O[C@H](COP(=O)(O)OP(=O)(O)O)[C@@H](OP(=O)(O)OP(=O)(O)O)[C@H]2O)c(=O)[nH]1 [ppGpp] was tested, and the IC50 ([1]; mRNA mInfA, read-out: IC50 Average) was 29 µM, the IC50 ([1]; mRNA mInfA, read-out: IC50 Replicates) was 28.5 µM and 29 µM and 29.5 µM and the IC50 ([1]; mRNA mMF1, read-out: IC50 Average) was 8.64 µM. The IC50 ([1]; mRNA mMF1, read-out: IC50 Replicates) was 8.44 µM and 8.71 µM and 8.75 µM, the IC50 ([1]; mRNA mTufA, read-out: IC50 Average) was 131 µM and the IC50 ([1]; mRNA mTufA, read-out: IC50 Replicates) was 130 µM and 131 µM and 132 µM. For the same compound, the “MST Average” value ([1]; mTufA, Log [ppGpp] 0.29) was 1135.97 a.u, the “MST Average” value ([1]; mTufA, Log [ppGpp] 0.59) was 1126.95 a.u and the “MST Average” value ([1]; mTufA, Log [ppGpp] 0.89) was 1118.40 a.u. For the same compound, the “MST Average” value ([1]; mTufA, Log [ppGpp] 1.19) was 1113.08 a.u, the “MST Replicates (a.u.)” value ([1]; mTufA, Log [ppGpp] 1.19) was 1112.21 a.u. and 1113.44 a.u. and 1113.60 a.u and the “MST Average” value ([1]; mTufA, Log [ppGpp] 1.49) was 1095.20 a.u. The “MST Replicates (a.u.)” value ([1]; mTufA, Log [ppGpp] 1.49) was 1094.85 a.u. and 1094.92 a.u. and 1095.85 a.u, the “MST Average” value ([1]; mTufA, Log [ppGpp] 1.80) was 1070.12 a.u and the “MST Replicates (a.u.)” value ([1]; mTufA, Log [ppGpp] 1.80) was 1069.34 a.u. and 1070.42 a.u. and 1070.61 a.u. The “MST Average” value ([1]; mTufA, Log [ppGpp] 2.10) was 1051.04 a.u, the “MST Replicates (a.u.)” value ([1]; mTufA, Log [ppGpp] 2.10) was 1050.31 a.u. and 1051.38 a.u. and 1051.44 a.u and the “MST Average” value ([1]; mTufA, Log [ppGpp] 2.40) was 1030.04 a.u. The “MST Average” value ([1]; mTufA, Log [ppGpp] 2.70) was 1004.77 a.u, the “MST Average” value ([1]; mTufA, Log [ppGpp] -0.01) was 1139.93 a.u and the “MST Average” value ([1]; mTufA, Log [ppGpp] -0.31) was 1146.28 a.u. For the same compound, the “MST Average” value ([1]; mTufA, Log [ppGpp] -0.61) was 1160.80 a.u, the IC50 ([1]; read-out: IC50 of 30S IC formation, mInfA, competition with 50 μM GTP) was 29 ± 1 µM and the IC50 ([1]; read-out: IC50 of 30S IC formation, mMF1, competition with 50 μM GTP) was 8.6 ± 0.2 µM. For the same compound, the IC50 ([1]; read-out: IC50 of 30S IC formation, mTufA with SRs I–III removed (+371)) was 50 ± 5 µM, the IC50 ([1]; read-out: IC50 of 30S IC formation, mTufA, competition with 50 μM GTP) was 132 ± 1 µM and the “efficiency (amplitude) of 70S pre-IC formation” value ([2]; 0.2 mM nucleotide, no GTP) was “reduced efficiencies”. For the same compound, the “rapid 70S pre-IC formation in the absence of GTP” value ([2]; 0.2 mM nucleotide, noncompetitive (S6 Fig)) was “negligible”, the “A0, best-fit value” ([2]; mInfA) was 1.01 and the “K1, best-fit value” ([2]; mInfA) was 1.203 and 1.20. The “k2, best-fit value” ([2]; mInfA) was 0.0007 and 0.000671, the “A0, best-fit value” ([2]; mMF1) was 1.01 and the “K1, best-fit value” ([2]; mMF1) was 2.759 and 2.76. The “k2, best-fit value” ([2]; mMF1) was 0.0007 and 0.000692, the “LS amplitude (a.u.) Avg” value ([2]; mRNA mInfA) was 0.011 a.u and the “kfast (s-1) Avg” value ([2]; mRNA mInfA) was 1.20 s⁻¹. For the same compound, the “LS amplitude (a.u.) Avg” value ([2]; mRNA mMF1) was 0.012 a.u, the “kfast (s-1) Avg” value ([2]; mRNA mMF1) was 2.76 s⁻¹ and the “LS amplitude (a.u.) Avg” value ([2]; mRNA mTufA) was 0.035 a.u. The “kfast (s-1) Avg” value ([2]; mRNA mTufA) was 3.76 s⁻¹, the “A0, best-fit value” ([2]; mTufA) was 1.03 and the “K1, best-fit value” ([2]; mTufA) was 3.763 and 3.76. The “k2, best-fit value” ([2]; mTufA) was 0.0010 and 0.00104, the “MST Replicates (a.u.)” value ([3]; IF2 0.16 µM, in the presence of the nucleotide) was 941.10 a.u. and 944.88 a.u. and 948.29 a.u and the “MST Average” value ([3]; IF2 0.31 µM) was 944.83 a.u. For the same compound, the “MST Replicates (a.u.)” value ([3]; IF2 0.31 µM) was 937.79 a.u. and 942.65 a.u. and 947.01 a.u, the “MST Average” value ([3]; IF2 0.63 µM) was 941.79 a.u and the “MST Replicates (a.u.)” value ([3]; IF2 0.63 µM) was 935.48 a.u. and 940.20 a.u. and 943.38 a.u. The “MST Average” value ([3]; IF2 1.25 µM) was 942.39 a.u, the “MST Replicates (a.u.)” value ([3]; IF2 1.25 µM) was 936.09 a.u. and 941.10 a.u. and 943.68 a.u and the “MST Average” value ([3]; IF2 2.50 µM) was 949.26 a.u. For the same compound, the “MST Replicates (a.u.)” value ([3]; IF2 2.50 µM) was 943.13 a.u. and 948.21 a.u. and 950.30 a.u, the “MST Average” value ([3]; IF2 5.00 µM) was 968.50 a.u and the “MST Replicates (a.u.)” value ([3]; IF2 5.00 µM) was 965.17 a.u. and 967.18 a.u. and 969.82 a.u.
